Assay [1] relates to platelet aggregation stimulated by thrombin (gel-filtered platelets). Put plainly: In vitro inhibition of thrombin-induced gel-filtered platelet aggregation assay. It counts as cell-based. To be noted: thrombin-induced gel-filtered human platelet aggregation; agonist thrombin 50 μL of 1 unit/mL; read-out: IC50 (μM) Thr GFP Aggr. The method, then: In Vitro Inhibition Of Thrombin-Induced Gel-Filtered Platelet Aggregation Assay
The percentage of platelet aggregation is calculated as an increase in light transmission of compound-treated platelet concentrate vs. control-treated platelet concentrate. Human blood is obtained from drug free, normal donors in tubes containing 0.13M sodium citrate. Platelet rich plasma (PRP) is collected by centrifugation of whole blood at 200×g for 10 min at 25° C. The PRP (5 mL) is gel filtered through Sepharose 2B (bed volume 50 mL), and the platelet count is adjusted to 2×10^7 platelets per sample. The following constituents are added to a siliconized cuvette: concentrated platelet filtrate and Tyrode's buffer (0.14M NaCl, 0.0027M KCl, 0.012M NaHCO3, 0.76 mM Na2HPO4, 0.0055M glucose, 2 mg/mL BSA and 5.0 mM HEPES @ pH 7.4) in an amount equal to 350 μL, 50 μL of 20 mM calcium and 50 μL of the test compound. Aggregation is monitored in a BIODATA aggregometer for the 3 min following the addition of agonist (thrombin 50 μL of 1 unit/mL).

Assay [2] deals with T1, Thrombin receptor (PAR-1) (Homo sapiens, UniProt P25116).
T1 construct: CHRF membranes (Jones, Biochim. Biophys. Acta 1992, 1136, 272) are thawed from −70° C; endogenous in cells; host or cells: CHRF cell membranes
T1 sequence (P25116 22-425): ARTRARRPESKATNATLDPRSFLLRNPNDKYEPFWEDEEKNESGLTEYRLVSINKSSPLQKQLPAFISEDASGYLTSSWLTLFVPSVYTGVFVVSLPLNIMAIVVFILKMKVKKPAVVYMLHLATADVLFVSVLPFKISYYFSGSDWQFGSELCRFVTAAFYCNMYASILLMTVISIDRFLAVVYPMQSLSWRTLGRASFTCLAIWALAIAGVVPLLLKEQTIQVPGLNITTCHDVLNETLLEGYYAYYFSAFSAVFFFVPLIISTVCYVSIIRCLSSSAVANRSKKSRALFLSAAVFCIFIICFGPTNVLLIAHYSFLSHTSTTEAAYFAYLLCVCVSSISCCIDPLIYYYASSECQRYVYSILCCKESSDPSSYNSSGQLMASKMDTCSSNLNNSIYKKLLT
The assay is described as follows: In vitro thrombin receptor binding assay. Conditions: CHRF membranes; tritiated 721-40 (Ser-pFPhe-Har-Leu-Har-Lys-Tyr-NH2) radioligand; read-out: IC50 (μM) Thr Recptr Bdg. The method, then: In Vitro Thrombin Receptor Binding Assay
CHRF membranes (Jones, Biochim. Biophys. Acta 1992, 1136, 272) are thawed from −70° C., centrifuged at maximum speed for 5 min, washed twice with binding buffer (50 mM HEPES containing 5 mM MgCl2 and 0.1% BSA), and re-suspended in binding buffer (25 μg/[…]). 100 μL of membranes are added to the 24-Wallac plates and delivered to the Tomtech apparatus. In a typical experiment, 6 μL of samples (from a 125 μg/mL intermediary plate, 20% DMSO) and 44 μL buffer are delivered to the plates (final conc. of compounds is 3.7 μg/mL, 0.6% DMSO). Similarly, 6 μL 20% DMSO and 44 μL buffer are delivered to both column 1 (NSB) and column 12 (TB). […] Ser-pFPhe-Har-Leu-Har-Lys-Tyr-NH2 (SEQ. ID. No. 2) (721-40; 500 μM in deionized water) is added to column 1. 50 μL tritiated 721-40 (specific activity 46 Ci/mmol) is added to all the wells. The plates are mixed well for 20 seconds, incubated for 30 min, and then harvested with 10 mM HEPES/138 mM NaCl using the Skatron harvester. The filters (GF/C Brandel FPXLR 296) are presoaked 3 h in 0.5% polyethylenimine in HEPES/0.1M N-acetylglucosamine) are set in Saran™ wrap and dried for 3 min in the microwave, and placed in sample bags (Wallac 1450-432). 4.5 mL scintillation fluid (Wallac, Betaplate Scint 1205-440) is added. The bags are sealed, placed in filter cassettes (Wallac 1450-104), and analyzed on the microbeta counter.

Structures are written as SMILES.

Broadly, the IC50 is the point on the concentration scale where inhibition reaches its midpoint.

Consider `NCC[C@H](NC(=O)[C@H](Cc1ccc(F)c(F)c1)NC(=O)Nc1ccc2c(CN3CCCC3)nn(Cc3c(Cl)cccc3Cl)c2c1)C(=O)NCc1ccccc1` [Compound 1, Benzenepropanamide, N-[(1S)-3-amino-1-[[(phenylmethyl)amino]carbonyl]propyl]-α-[[[[[1-(2,6-dichlorophenyl)methyl]-3-(1-pyrrolidinylmethyl)-1H-indazol-6-yl]amino]carbonyl]amino]-3,4-difluoro-,(αS)-], for which the IC50 turned out to be 0.31 µM in assay [1] and 0.04 µM in assay [2].

Take `NCC[C@H](NC(=O)[C@H](Cc1ccc(Cl)cc1)NC(=O)Nc1ccc2c(CN3CCCC3)nn(Cc3c(Cl)cccc3Cl)c2c1)C(=O)NCc1ccccc1` [Compound 2, Benzenepropanamide, N-[(1S)-3-amino-1-[[(phenylmethyl)amino]carbonyl]propyl]-α-[[[[[1-(2,6-dichlorophenyl)methyl]-3-(1-pyrrolidinylmethyl)-1H-indazol-6-yl]amino]carbonyl]amino]-4-chloro-, (αS)-]: the results for the 50% inhibitory concentration (IC50) in assay [1] and in assay [2] were 0.26 µM and 20 µM, respectively.

As for `NCCNC(=O)[C@H](Cc1ccncc1)NC(=O)[C@H](Cc1ccc(F)c(F)c1)NC(=O)Nc1ccc2c(CN3CCCC3)nn(Cc3c(Cl)cccc3Cl)c2c1` [Compound 3, L-Alaninamide, 3,4-difluoro-N-[[[1-[(2,6-dichlorophenyl)methyl]-3-(1-pyrrolidinylmethyl)-1H-indazol-6-yl]amino]carbonyl]-L-phenylalanyl-N-(2-aminoethyl)-3-(4-pyridinyl)-], the values for the IC50 in assay [1] and in assay [2] were 0.5 µM and 0.03 µM, respectively.

For the compound `C[C@@H](NC(=O)[C@H](CCN)NC(=O)[C@H](Cc1ccc(F)c(F)c1)NC(=O)Nc1ccc2c(CN3CCCC3)nn(Cc3c(Cl)cccc3Cl)c2c1)c1ccccc1` [Compound 4], the half-maximal inhibitory concentration (IC50) is 0.32 µM in assay [1] and 0.15 µM in assay [2].

As to `NCC[C@H](NC(=O)[C@H](Cc1ccc(F)c(F)c1)NC(=O)Nc1ccc2c(CN3CCCC3)nn(Cc3c(Cl)cccc3Cl)c2c1)C(=O)N[C@H](CO)c1ccccc1` [Compound 5], the IC50 in assay [1] was 0.66 µM; in assay [2] it was 0.32 µM.

For the compound `NCCNC(=O)[C@H](Cc1cccs1)NC(=O)[C@H](Cc1ccc(Cl)cc1)NC(=O)Nc1ccc2c(CN3CCCC3)nn(Cc3c(Cl)cccc3Cl)c2c1` [Compound 6], the results for the half-maximal inhibitory concentration (IC50) in assay [1] and in assay [2] were 0.3 µM and 5.8 µM, respectively.
